In PMC6753678, “Fueling Open Innovation for Malaria Transmission-Blocking Drugs: Hundreds of Molecules Targeting Early Parasite Mosquito Stages” (Frontiers in Microbiology, 2019):
Where two headings read alike, the source gives them in different places.

Tests used:
HepG2 cells = assay: HepG2 cytotoxicity assay; settings: for IC50: read-out: HepG2 cytotoxicity assay IC50, dose response confirmation; for Pb ODA (this manuscript) HepG2 cytoxicity: HepG2 cytotoxicity listed with the Pb ODA data set (this manuscript)
Procedure: Briefly, HepG2 cells were seeded onto compound-treated 384 well plates at a density of 2,500 cells per well in Minimal Essential Medium (MEM) plus 10% fetal bovine serum and 1% non-essential amino acids solution (NEAA). Cells were incubated with test compounds or 50 μM doxorubicin (positive) and DSMO (negative) controls at 37°C for 48 h in a humidified 5% CO2 atmosphere. […] Cell viability was then measured in a fluorescent plate reader and percent inhibition calculated with respect to positive and negative controls.

[1] = test system: 3D7-strain P. falciparum asexual parasites; assay: P. falciparum asexual growth inhibition assay (Pf GIA); format: cell-based, Plasmodium falciparum; settings: dose response confirmation; read-out: Pf asexual growth inhibition assays IC50
Procedure: The asexual activity of active compounds was tested in dose response with parasite lactate dehydrogenase (LDH) activity used as a readout of parasite viability as described in [Gamo et al. (2010)]. Briefly, 3D7-strain P. falciparum asexual parasites were diluted to 0.25% parasitemia, 2% hematocrit in culture medium composed of RPMI medium with 25 mM HEPES, 2% D-sucrose, 0.3% L-glutamine, 150 μM hypoxanthine plus 5% albumax. 25 μl of parasite inoculum was then dispensed into each well of a 384 well plate containing test compounds and positive (50 μM chloroquine) and negative (DMSO) controls. Plates were incubated for 72 h at 37°C in a 5% CO2, 5%O2, 90% N2 environment before being frozen at −70°C. Plates were then thawed and 70 μl of reaction mix (143 mM sodium L-lactate, 143 mM 3-acetyl pyridine adenine dinucleotide, […] Nitro Blue tetrazolium chloride, […] diaphorase (2.83 U/ml), 0.7% Tween 20, 100 mM Tris–HCl pH 8.0) was added to each well using a Multidrop Combi automated dispenser. Plates were shaken to mix and then absorbance at 650 nm was measured after 10 min incubation at room temperature. Percent inhibition of asexual growth was then calculated with respect to positive and negative controls. Data presented is the mean of three independent biological replicates.

[2] = test system: P. berghei ookinete development; settings: for % inhibition, Replicate A / % inhibition, Replicate B: primary screen at 1 μM
[3] = HepG2 values of the three screens unified
[4] = read-out: Pb ODA IC50, this manuscript
[5] = read-out: Pb Ookinete development assay IC50, dose response confirmation
[6] = unified HepG2 value across the three screens
[7] = read-out: Pb ODA (this manuscript) IC50, P. berghei ookinete development assay, this manuscript

Cc1[nH]c(C)c(-c2ccc(-c3ccccc3C(F)(F)F)nc2)c(=O)c1Br [TCMDC-135881]
Unified cytotox (HepG2 cells; [3]): 100.00 µM
IC50 (HepG2 cells): 100000 nM
IC50 [1]: 191 nM
Is compound selective in assay? Pb ODA active? ([2]; 1: YES, 0: NO): 1 (1: YES)
% inhibition, Replicate A [2]: 87.53%
% inhibition, Replicate B [2]: 97.69%
IC50 [2, 4]: 970 nM
IC50 [2, 5]: 973 nM

COc1ccc2ncc(F)c(CCN3CC[C@H](NCc4cc(C#N)c5c(c4)OCCO5)[C@H](O)C3)c2c1 [TCMDC-136207]
IC50 (HepG2 cells): 38000 nM
Unified cytotox (HepG2 cells; [6]): 38.02 µM
IC50 [1]: 795 nM
Is compound selective in assay? Pb ODA active? ([2]; 1: YES, 0: NO): 1 (1: YES)
% inhibition, Replicate A [2]: 67.99%
% inhibition, Replicate B [2]: 58.62%
IC50 [2, 4]: 750 nM
IC50 [2, 5]: 747 nM

COc1cccc(CNCC(C)(C)c2nc(-c3ccc(Cl)c(O)c3)c(-c3ccncc3)[nH]2)c1.Cl [TCMDC-140687]
Pb ODA (this manuscript) HepG2 cytoxicity (HepG2 cells): 5.01 µM
IC50 (HepG2 cells): 5010 nM
IC50 [1]: 759 nM
Is compound selective in assay? Pb ODA active? [2]: 0 (key: 1: YES; 0: NO)
% inhibition, Replicate A [2]: 13.26%
% inhibition, Replicate B [2]: 51.15%
IC50 [2, 7]: 3740 nM
IC50 [2, 5]: 3740 nM

Cc1[nH]c(C)c(-c2ccc(OCc3ccc(OC(F)(F)F)cc3)nc2)c(=O)c1Br [TCMDC-135254]
HepG2 cytoxicity (Pb ODA, this manuscript) (HepG2 cells): 87.10 µM
Unified cytotox (HepG2 cells; [3]): 87.10 µM
IC50 (HepG2 cells): 87100 nM
IC50 [1]: 122 nM
Is compound selective in assay? Pb ODA active? ([2]; 1: YES, 0: NO): 1 (1: YES)
% inhibition, Replicate A [2]: 57.86%
% inhibition, Replicate B [2]: 80.15%
IC50 [2, 4]: 1680 nM
IC50 [2, 5]: 1680 nM

COc1ccc(Nc2ncc(OC)c(Nc3ccccc3C(N)=O)n2)cc1N1CCN(C)CC1.O=CO [TCMDC-134149]
Pb ODA (this manuscript) HepG2 cytoxicity (HepG2 cells): 13.49 µM
IC50 (HepG2 cells): 13500 nM
IC50 [1]: 846 nM
Is compound selective in assay? Pb ODA active? [2]: 1 (key: 1: YES; 0: NO)
% inhibition, Replicate A [2]: 85.24%
% inhibition, Replicate B [2]: 71.46%
IC50 [2, 5]: 270 nM

Br.CCC(ON1C(N)=NC(N)=NC1(C)C)c1ccc(Cl)cc1 (centres unmarked) [TCMDC-131709]
Pb ODA (this manuscript) HepG2 cytoxicity (HepG2 cells): 0.00513 µM
IC50 (HepG2 cells): 5.13 nM
IC50 [1]: 1.55 nM
Is compound selective in assay? Pb ODA active? [2]: 0 (key: 1: YES; 0: NO)
% inhibition, Replicate A [2]: 60.03%
% inhibition, Replicate B [2]: 57.14%
IC50 [2, 7]: 3260 nM
IC50 [2, 5]: 3260 nM

COc1ccc(NS(=O)(=O)c2cc(NC(=O)Cn3ccccc3=O)ccc2N2CCCCC2)cc1 [TCMDC-124874]
IC50 (HepG2 cells): 100000 nM
Unified cytotox (HepG2 cells; [6]): 100.00 µM
IC50 [1]: 489 nM
Is compound selective in assay? Pb ODA active? ([2]; 1: YES, 0: NO): 1 (1: YES)
% inhibition, Replicate A [2]: 66.12%
% inhibition, Replicate B [2]: 73.52%
IC50 [2, 4]: 1270 nM
IC50 [2, 5]: 1270 nM

COc1ccc(Cl)cc1NC(=O)CN(C)C(=O)c1cnn(-c2ccccc2)n1 [TCMDC-125457]
IC50 (HepG2 cells): 100000 nM
Unified cytotox (HepG2 cells; [6]): 100.00 µM
IC50 [1]: 222 nM
Is compound selective in assay? Pb ODA active? ([2]; 1: YES, 0: NO): 1 (1: YES)
% inhibition, Replicate A [2]: 53.54%
% inhibition, Replicate B [2]: 37.16%
IC50 [2, 4]: 5110 nM
IC50 [2, 5]: 5110 nM

CC1CN(Cc2cccc(F)c2)CCN1c1ccc(NC(=O)c2cccs2)cc1.O=C(O)C(F)(F)F (centres unmarked) [TCMDC-135009]
Pb ODA (this manuscript) HepG2 cytoxicity (HepG2 cells): 120.23 µM
IC50 (HepG2 cells): 120000 nM
IC50 [1]: 242 nM
Is compound selective in assay? Pb ODA active? [2]: 1 (key: 1: YES; 0: NO)
% inhibition, Replicate A [2]: 59.80%
% inhibition, Replicate B [2]: 66.69%
IC50 [2, 5]: 420 nM

NC(=O)c1ccccc1Nc1nc(Nc2cc[nH]n2)ncc1Cl [TCMDC-134169]
Pb ODA (this manuscript) HepG2 cytoxicity (HepG2 cells): 13.18 µM
IC50 (HepG2 cells): 13200 nM
IC50 [1]: 2310 nM
Is compound selective in assay? Pb ODA active? [2]: 1 (key: 1: YES; 0: NO)
% inhibition, Replicate A [2]: 78.38%
% inhibition, Replicate B [2]: 61.96%
IC50 [2, 7]: 510 nM
IC50 [2, 5]: 513 nM

Cc1[nH]c2ccc(-c3ccc(N(C)C)cc3)cc2c(=O)c1Cl [TCMDC-136188]
IC50 (HepG2 cells): 100000 nM
Unified cytotox (HepG2 cells; [6]): 100.00 µM
IC50 [1]: 227 nM
Is compound selective in assay? Pb ODA active? ([2]; 1: YES, 0: NO): 1 (1: YES)
% inhibition, Replicate A [2]: 79.29%
% inhibition, Replicate B [2]: 60.77%
IC50 [2, 4]: 550 nM
IC50 [2, 5]: 547 nM

N#Cc1cc([N+](=O)[O-])ccc1-n1nc(C(N)=O)n(Cc2cccc(F)c2)c1=S [TCMDC-134721]
IC50 (HepG2 cells): 34700 nM
Unified cytotox (HepG2 cells; [6]): 34.67 µM
IC50 [1]: 650 nM
Is compound selective in assay? Pb ODA active? ([2]; 1: YES, 0: NO): 1 (1: YES)
% inhibition, Replicate A [2]: 66.73%
% inhibition, Replicate B [2]: 70.30%
IC50 [2, 4]: 1120 nM
IC50 [2, 5]: 1120 nM

Cc1[nH]c(C)c(-c2ccc(-c3ccccc3F)nc2)c(=O)c1Br [TCMDC-135926]
Unified cytotox (HepG2 cells; [3]): 100.00 µM
IC50 (HepG2 cells): 100000 nM
IC50 [1]: 222 nM
Is compound selective in assay? Pb ODA active? ([2]; 1: YES, 0: NO): 1 (1: YES)
% inhibition, Replicate A [2]: 85.66%
% inhibition, Replicate B [2]: 106.09%
IC50 [2, 4]: 460 nM
IC50 [2, 5]: 461 nM

Cc1[nH]c(C)c(-c2ccc(Oc3ccc(F)cc3)cc2)c(=O)c1Cl [TCMDC-134728]
HepG2 cytoxicity (Pb ODA, this manuscript) (HepG2 cells): 56.23 µM
Unified cytotox (HepG2 cells; [3]): 56.23 µM
IC50 (HepG2 cells): 56200 nM
IC50 [1]: 19 nM
Is compound selective in assay? Pb ODA active? ([2]; 1: YES, 0: NO): 1 (1: YES)
% inhibition, Replicate A [2]: 96.35%
% inhibition, Replicate B [2]: 103.17%
IC50 [2, 4]: 50 nM
IC50 [2, 5]: 49 nM

O=C(NCC1CC1)C1CCN(C(c2ccc(Cl)cc2)c2ccc(Cl)cc2)CC1 [TCMDC-135522]
IC50 (HepG2 cells): 100000 nM
Unified cytotox (HepG2 cells; [6]): 100.00 µM
IC50 [1]: 305 nM
Is compound selective in assay? Pb ODA active? ([2]; 1: YES, 0: NO): 1 (1: YES)
% inhibition, Replicate A [2]: 38.16%
% inhibition, Replicate B [2]: 71.31%
IC50 [2, 5]: 1590 nM

Cc1[nH]c(C)c(-c2ccc(-c3ccc(Cl)cc3)nc2)c(=O)c1Cl [TCMDC-136301]
Unified cytotox (HepG2 cells; [3]): 100.00 µM
IC50 (HepG2 cells): 100000 nM
IC50 [1]: 193 nM
Is compound selective in assay? Pb ODA active? ([2]; 1: YES, 0: NO): 1 (1: YES)
% inhibition, Replicate A [2]: 94.15%
% inhibition, Replicate B [2]: 37.57%
IC50 [2, 4]: 960 nM
IC50 [2, 5]: 963 nM

Cc1cc(O)c(-c2ccc(Oc3ccc(F)cc3)cc2)c(C)n1 [TCMDC-137535]
HepG2 cytoxicity (Pb ODA, this manuscript) (HepG2 cells): 0.28 µM
Unified cytotox (HepG2 cells; [3]): 0.28 µM
IC50 (HepG2 cells): 280 nM
IC50 [1]: 1030 nM
Is compound selective in assay? Pb ODA active? ([2]; 1: YES, 0: NO): 0 (0: NO)
% inhibition, Replicate A [2]: 57.60%
% inhibition, Replicate B [2]: 38.98%
IC50 [2, 4]: 580 nM
IC50 [2, 5]: 583 nM

CCC(C)CN1CCN(c2ccc(NC(=O)c3cccs3)cc2)C(C)C1.O=C(O)C(F)(F)F (centres unmarked) [TCMDC-134996]
Pb ODA (this manuscript) HepG2 cytoxicity (HepG2 cells): 60.26 µM
IC50 (HepG2 cells): 60300 nM
IC50 [1]: 753 nM
Is compound selective in assay? Pb ODA active? [2]: 1 (key: 1: YES; 0: NO)
% inhibition, Replicate A [2]: 97.72%
% inhibition, Replicate B [2]: 83.44%
IC50 [2, 5]: 1050 nM
